Values joined by “and” are separate entries in the source; they are usually repeats but may differ in a detail not shown here. Identical values can stand only once. Like-named read-outs stand apart in the source and are kept apart here.
Tests used:
[1] = GC-MS headspace release profile of Tropical Fruit perfume in shampoo, 1/100 dilution in water; format: physicochemical
Description: A 10 gram sample of formulation and fragrance was added to an empty 1000 ml pyrex beaker. This beaker was then filled with 1000 ml of 120 F tap water. Beaker with diluted shampoo sample was then immediately placed into a semi-enclosed plexiglass chamber.
Headspace Sampling: Once beaker was placed into chamber a Carboxan SPME field fiber was held at the top-side opening of the chamber over the beaker containing the sample. […] […] Top of plexiglass chamber was held open for entire 5 minutes of headspace sampling.

[2] = in water, cited from earlier work; for exp ODT (ppb) water: experimental values from the Booleans database

SMILES | GC Abundance ([1]; headspace at 20 seconds) | GC Abundance ([1]; headspace at 30 seconds) | GC Abundance ([1]; headspace at 40 seconds) | GC Abundance ([1]; headspace at 50 seconds) | ODT (ppb) ([2]; Table 9) | ODT (ppb) ([2]; Table 11) | ODT (ppb) ([2]; Table 13) | exp ODT (ppb) water [2] | GC Abundance ([1]; headspace at 10 seconds)
CCOC(=O)CC1(C)OCCO1 [FRUCTONE] | 3000 | 5000 | 5000 | 5000 | less than 50 ppb | less than 50 ppb | less than 50 ppb | – | –
C=CCOC(=O)CCCCC [ALLYL CAPROATE] | – | – | – | – | less than 50 ppb | less than 50 ppb | less than 50 ppb | – | –
C=CCOC(=O)CCC1CCCCC1 [ALLYL CYCLOHEXYL PROPIONATE] | – | – | 7000 | 10000 | less than 50 ppb | less than 50 ppb | less than 50 ppb | – | –
C=C(C)C1CC=C(C)C(=O)C1 (stereo not shown) [I-1-Methyl-4-isopropenyl-6-cyclohexen-2-one] | – | – | – | – | – | – | – | 50 ppb | –
CC=CC(=O)C1=C(C)C=CCC1(C)C [DAMASCENONE, 1-(2,6,6-Trimethylcyclohexa-1,3-dienyl)-2-buten-1-one] | – | – | – | 1000 | – | – | – | 0.002 ppb | –
CC(=O)C=CC1=C(C)CCCC1(C)C [IONONE BETA PURE, 4-(2,6,6-Trimethyl-1-cyclohexen-1-yl)-3-buten-2-one] | – | 2000 | 10000 | 18000 | less than 50 ppb | less than 50 ppb | less than 50 ppb | 4-6 ppb | –
CC(C)=CC1CC(C)CCO1 (stereo not drawn) [ROSE OXIDE (HIGH CIS), Tetrahydro-4-methyl-2-(2-methylpropen-1-yl)pyran] | 10000 | 14000 | 14000 | 14000 | – | – | – | 0.5 ppb | –
CC/C=C\CCOC(=O)c1ccccc1O [CIS-3-HEXENYL SALICYLATE] | – | – | – | – | less than 50 ppb | less than 50 ppb | less than 50 ppb | – | –
CCOC(=O)C1OC1(C)c1ccccc1 (stereo not shown) [Ethyl 2,3-epoxy-3-methyl-3-phenylpropionate] | – | – | – | – | – | – | – | 25 ppb | –
CC(=O)C=CC1C(C)=CCCC1(C)C (stereo not drawn) [alpha ionone, 4-(2,2,6-Trimethyl-2-cyclohexen-1-yl)-3-buten-2-one] | – | – | – | – | – | – | – | 0.4-10 ppb | –
CCOC(=O)CC(C)=O [ETHYL ACETOACETATE] | – | – | – | – | less than 50 ppb | less than 50 ppb | less than 50 ppb | – | –
CCCCCCC(C=O)=Cc1ccccc1 [HEXYL CINNAMIC ALDEHYDE] | – | – | 2000 | 9000 | – | – | less than 50 ppb | – | –
C=CCOC(=O)COC1CCCCC1 [CYCLOGALBANATE] | – | – | – | – | less than 50 ppb | less than 50 ppb | less than 50 ppb | – | –
CCCCCC1C(=O)CCC1CC(=O)OC (stereo not shown) [HEDIONE] | – | – | – | 4000 | less than 50 ppb | less than 50 ppb | less than 50 ppb | – | –
CC(=O)OC1CCCCC1C(C)(C)C (stereo not shown) [VERDOX] | 5000 | 14000 | 18000 | 20000 | less than 50 ppb | less than 50 ppb | less than 50 ppb | – | –
CCCC(=O)OCC [ETHYL BUTYRATE] | 2800 | 2800 | 2000 | 800 | less than 50 ppb | less than 50 ppb | less than 50 ppb | 1 ppb | 2800
CCCCCCCC=O [1-Octanal] | – | – | – | – | – | – | – | 30 ppb | –
CCCC(C)C(=O)OCC (stereo not shown) [MANZANATE, Ethyl 2-methylpentanoate] | 4000 | 4000 | 3000 | 1500 | – | – | – | 0.0030 ppb | 1000
CC(C)=CCCC(C)C=O (stereo not shown) [melonal, 2,6-Dimethyl-5-heptenal] | – | – | – | – | – | – | – | 16 ppb | –
CC/C=C\CCOC(C)=O [CIS-3-HEXENYL ACETATE] | 5000 | 14000 | 14000 | 14000 | less than 50 ppb | less than 50 ppb | less than 50 ppb | – | –

SMILES | GC Abundance ([1]; headspace at 20 seconds) | GC Abundance ([1]; headspace at 30 seconds) | GC Abundance ([1]; headspace at 40 seconds) | GC Abundance ([1]; headspace at 50 seconds) | ODT (ppb) ([2]; Table 9) | ODT (ppb) ([2]; Table 11) | ODT (ppb) ([2]; Table 13) | exp ODT (ppb) water [2] | GC Abundance ([1]; headspace at 10 seconds)
CC=CC(=O)C1C(C)=CCCC1(C)C (stereo not drawn) [alpha-DAMASCONE, α-1-(2,6,6-Trimethyl-2-cyclohexen-1-yl)-2-buten-1-one] | – | – | 1000 | 5000 | – | – | – | 1.5 ppb | –
CCC(=O)OC/C=C(\C)CCC=C(C)C [trans-3,7-Dimethyl-2,6-octadien-1-yl propanoate] | – | – | – | – | – | – | – | 10 ppb | –
CCCCCCC1CCC(=O)O1 (stereo not shown) [GAMMA-DECALACTONE, 5-Hexyldihydro-2(3H)-furanone] | – | – | 4000 | 7000 | less than 50 ppb | less than 50 ppb | less than 50 ppb | – | –
CC1=CC(C)C(C=O)CC1 (stereo not shown) [TRIPLAL] | 14000 | 14000 | 10000 | 6000 | less than 50 ppb | less than 50 ppb | less than 50 ppb | – | 1000
CCCCCCOC(C)=O [HEXYL ACETATE] | – | – | – | – | less than 50 ppb | less than 50 ppb | less than 50 ppb | – | –
CC(C)=CCCC(C)CC#N (stereo not shown) [CITRONELLYL NITRILE] | – | – | – | – | less than 50 ppb | less than 50 ppb | less than 50 ppb | – | –
CC=Cc1ccc(O)c(OC)c1 [1-Hydroxy-2-methoxy-4-propenylbenzene] | – | – | – | – | – | – | – | 30-40 ppb | –
Cc1ccc(C(C)C)c(O)c1 [5-Methyl-2-isopropylphenol] | – | – | – | – | – | – | – | 400 ppb | –
CC(C)C(=O)OCCOc1ccccc1 [PHENOXY ETHYL ISOBUTYRATE] | – | – | – | – | less than 50 ppb | less than 50 ppb | less than 50 ppb | – | –
CCOC(=O)C(C)CC (stereo not shown) [Ethyl 2-methylbutyrate] | 3100 | 3100 | 2000 | 1500 | – | – | – | 0.1-0.3 ppb | 3000
COc1cc(C=O)ccc1O [4-Hydroxy-3-methoxybenzaldehyde] | – | – | – | – | – | – | – | 25-58 ppb and 20-200 ppb | –
CC1=CCC(/C=C\C(C)C(C)O)C1(C)C (stereo not shown) [EBANOL] | – | – | – | – | less than 50 ppb | less than 50 ppb | less than 50 ppb | – | –
CC(C=O)Cc1ccc(C(C)(C)C)cc1 (stereo not shown) [LILIAL] | – | – | – | – | less than 50 ppb | less than 50 ppb | less than 50 ppb | – | –
CC(C)(O)CCCC1=CCC(C=O)CC1 (stereo not shown) [LYRAL] | – | – | – | – | – | – | less than 50 ppb | – | –
CC(=O)OC/C=C(/C)CCC=C(C)C [NERYL ACETATE] | – | – | – | – | less than 50 ppb | less than 50 ppb | less than 50 ppb | – | –
CCCCCOC(C)=O [Pentyl Acetate] | – | – | – | – | – | – | – | 43 ppb | –
CCCCOC(C)=O [Butyl acetate] | – | – | – | – | – | – | – | 44-88 ppb | –
C=CC(C)(O)CCC=C(C)C (stereo not shown) [LINALOOL] | 18000 | 18000 | 18000 | 18000 | less than 50 ppb | less than 50 ppb | less than 50 ppb | – | 500
CCCCCOC(=O)CCC [Pentyl butyrate] | – | – | – | – | – | – | – | 44-87 ppb | –
C=CC(C)(O)CCC=C(C)CC (mixture of isomers) [ETHYL LINALOOL] | 5000 | 10000 | 10000 | 10000 | – | – | – | – | –
